Source: patent US20170002393A1, “COMPOSITIONS AND METHODS FOR ANTIBODY PRODUCTION” (IMMUNOGEN, INC., priority 2013, published 2017)
Values after ≈ are worked out from the molar mass of the structure shown. Blank lines part the entries; values can stand above or below the compound they belong to.

How the values were obtained:
[1] = tested on: humanized FOLR1 IgG1; assay: Antibody fragmentation in HCCF with 20% (v/v) microfluidized CHO cells (non-reducing SDS-Protein Lab Chip); assay type: biochemical; conditions: 1 mM of each additive, 6 h; no additive control 78%
[2] = physchem; conditions: thermodynamic from solid
[3] = 50 mM potassium phosphate buffer, pH adjusted to 7.1
[4] = tested on: recombinant humanized IgG1 antibody; assay: Antibody fragmentation in HCCF kept under nitrogen, air or oxygen with or without CDME (non-reducing SDS-Protein Lab Chip); assay type: biochemical
Experimental: A CHO cell culture producing recombinant humanized IgG1 antibody was subjected to centrifugation and the resulting harvest cell culture fluid (HCCF) was frozen at −80° C. […] At various time points, samples were quenched with N-ethylmaleimide (NEM), purified using immobilized Protein A, and analyzed for fragments using non-reducing SDS-Protein Lab Chip electrophoresis. […] In contrast, the sample overlayed with air became less fragmented with time, reaching a plateau of about 25% fragmentation at 20 hours.

[5] = tested on: Humanized anti-folate receptor 1 (FOLR1) IgG1; assay: Thiol per antibody (DTNB/Ellman's) after incubating immobilized antibody with damaged CHO cell supernatant; assay type: biochemical; conditions: 0.05 mM agent, 2.2 hours; antibody eluted from Protein A bead, neutralized to pH 7
Experimental: For all of the examples described below, cell damage was simulated by multiple freeze-thaw cycles of cells, by addition of RIPA buffer (50 mM Tris-HCl, pH 7.4, 1% NP-40, 0.5% sodium deoxycholate, 0.1% sodium dodecylsulfate), or by using microfluidizer. This damaged cell supernatant or lysate was then incubated with a buffered solution containing antibody with or without the anti-reduction agent being tested, following which the extent of the antibody-disulfide reduction was measured using Ellman's assay for thiol (P. W. Riddles, R. L. Blakeley, and B. Zerner, Methods Enzymol., 91, 49-60, 1983) or by non-reducing SDS protein LabChip analysis. The total thiol level present in the mixture of damaged cell supernatant/lysate was measured initially. […]
The concentration of thiol in the suspension of damaged CHO cells was measured as 4 mM using DTNB ((5,5′-dithiobis(2-nitrobenzoic acid); Ellman's reagent). Humanized anti-folate receptor 1 (FOLR1) IgG1 (1 mg) was immobilized on 0.05 ml of Protein A bead (RepliGen) and then treated with pre-mixed 0.5 ml PBS and 0.1 ml damaged CHO cell supernatant. The concentration of thiol in this mixture was 0.67 mM. […]

Structure (SMILES): O=C1c2ccccc2C(=O)c2cc(S(=O)(=O)O)ccc21 [AQS, anthraquinone-2-sulfonic acid]
fragmentation compared to no additive control [1]: much lower fragmentations

Structure (SMILES): Cl.Cl.N[C@@H](CSSC[C@H](N)C(=O)O)C(=O)O [L-cystine dihydrochloride, reference compound]
concentration dissolved in buffer [3]: less than 5 mM

Structure (SMILES): N[C@@H](CSSC[C@H](N)C(=O)O)C(=O)O [L-cystine, reference compound]
solubility ([2]; water): ~0.5 mM (≈ 0.12 mg/mL)

Structure (SMILES): CN(C)c1ccc2nc3ccc(N(C)C)cc3[s+]c2c1 [methylene blue, Methylene blue]
thiol per antibody of eluted, neutralized antibody [5]: 0.002 thiol per antibody

Structure (SMILES): O=O [oxygen]
protection against fragmentation ([4]; sparging with oxygen at various percentages of dissolved O2): showed protection against fragmentation

Continued, in another order:

solubility ([2]; pH 7, aqueous buffer): > 100 mM
solubility ([2]; water): ≥ 1000 mM
Structure (SMILES): CCOC(=O)[C@@H](N)CSSC[C@H](N)C(=O)OCC [CDEE, L-cystine diethyl ester]

concentration dissolved in buffer [3]: ≥ 5000 µM
Structure (SMILES): COC(=O)[C@@H](N)CSSC[C@H](N)C(=O)OC [CDME, L-cystine dimethyl ester]
time up to which the antibody was protected from reduction ([4]; 1 mM CDME with nitrogen): up to 20 hours
time up to which the antibody was protected from reduction ([4]; 2 mM CDME with nitrogen): ≤ 45 h
fragmentation with air overlay plus CDME versus air alone ([4]; ~1 mM CDME with air overlay, up to 72 hours): lowered the fragmentation further
fragmentation compared to no additive control [1]: much lower fragmentations
